Results as given in patent publication US7041461B2 (H. Lundbeck A/S, priority 1998, dated 2006).

Experiments:
Assay type in all cases: cell-based
NPFF1 (SN2) = target: T1, NPFF1 (SN2) (Rattus norvegicus, UniProt Q9EP86); assay: Microphysiometric measurement of extracellular acidification rate in transiently transfected CHO cells; details: CHO cells transfected with NPFF1 alone; read-out: EC50, increase in extracellular acidification rate
T1 construct: expressed in transfected cells; host or cells: CHO (CHO-K1) cells, transient
T1 sequence (Q9EP86 whole entry): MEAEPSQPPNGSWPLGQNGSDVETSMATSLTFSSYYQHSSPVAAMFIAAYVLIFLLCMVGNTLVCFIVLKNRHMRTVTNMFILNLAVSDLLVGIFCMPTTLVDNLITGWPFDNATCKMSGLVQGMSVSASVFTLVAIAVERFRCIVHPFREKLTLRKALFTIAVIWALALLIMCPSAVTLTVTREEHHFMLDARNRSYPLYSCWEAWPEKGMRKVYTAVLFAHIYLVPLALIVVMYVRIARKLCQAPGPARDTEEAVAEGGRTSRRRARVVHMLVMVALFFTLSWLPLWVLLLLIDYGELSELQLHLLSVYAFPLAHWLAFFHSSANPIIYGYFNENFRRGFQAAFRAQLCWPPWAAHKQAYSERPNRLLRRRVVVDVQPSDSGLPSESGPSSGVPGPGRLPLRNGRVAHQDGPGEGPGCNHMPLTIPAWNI
Description: Microphysiometric response of CHO cells transiently transfected with either NPFF1 (SN2) alone or NPFF1 accompanied by Gq/Gz. […] In both FIGS. 17A and 17B control cells mock transfected with empty vector produced little if any response to drug even at the highest concentrations used. Responses are reported as percentage increase in the acidification rate as observed just prior to drug challenge (immediate prior basal rate).
General guidelines for transient receptor expression, cell preparation and microphysiometric recording are described elsewhere (Salon, J. A. and Owicki, J. A., 1996). Receptors and/or control vectors are transiently expressed in CHO-K1 cells, by liposome mediated transfection according to the manufacturers recommendations (Lipof ectAMINE, GibcoBRL, Gaithersburg, Md.), and maintained in Ham's F-12 complete (10% serum). […]
A standard recording protocol specifies a 100 μl/min flow rate, with a 2 min total pump cycle which includes a 30 sec flow interrruption during which the acidification rate measurement is taken. […] Ligand samples are then washed out and the acidification rates reported are expressed as a percentage increase of the peak response over the baseline rate observed just prior to challenge. […]

SNORF2 (NPFF1) = target: T2, SNORF2 (NPFF1) (Rattus norvegicus, UniProt Q9EP86); assay: Voltage-clamp electrophysiology in Xenopus oocytes expressing SNORF2 (NPFF1) and chimeric Gαq/z; details: 1 μM; oocytes with SNORF2 and Gαq/z; holding potential −80 mV
T2 construct: from linearized plasmids or PCR products containing the complete coding region of the genes; expressed in transfected cells; host or cells: Xenopus laevis oocytes injected with synthetic RNA
T2 sequence (Q9EP86 whole entry): as above
Description: (§1) Oocytes were harvested from Xenopus laevis and injected with mRNA transcripts as previously described (Quick and Lester, 1994; Smith et al., 1997). […] Three to eight hours prior to recording, oocytes were injected with 500 pg Gαq/z mRNA in order to observe coupling to Ca^++ activated Cl^− currents. Dual electrode voltage clamp (Axon Instruments Inc.) was performed using 3 M KCl-filled glass microelectrodes having resistances of 1–2 Mohm. Unless otherwise specified, oocytes were voltage clamped at a holding potential of −80 mV. During recordings, oocytes were bathed in continuously flowing (1–3 ml/min) medium containing 96 mM NaCl, 2 mM KCl, 1.8 mM CaCl2, 1 mM MgCl2, and 5 mM HEPES, pH 7.5 (ND96). Drugs were applied either by local perfusion from a […] glass capillary tube fixed at a distance of 0.5 mm from the oocyte, or by switching from a series of gravity fed perfusion lines.
Heterologous expression of GPCRs in Xenopus oocytes has been widely used to determine the identity of signaling pathways activated by agonist stimulation (Gundersen et al., 1983; Takahashi et al., 1987). Activation of the phospholipase C (PLC) pathway is assayed by applying test compound in ND96 solution to oocytes previously injected with mRNA for the mammalian receptor and observing inward currents at a holding potential of −80 mV. The appearance of currents that reverse at −25 mV and display other properties of the Ca^++-activated Cl^− (chloride) channel is indicative of mammalian receptor-activation of PLC and release of IP3 and intracellular Ca^++.
Control oocytes receiving only G-protein synthetic RNA were unresponsive to these peptides. […] Similarly, SNORF2-like was renamed NPFF-like.

NPFF2 (hNPFF2) = target: T3, NPFF2 (hNPFF2) (Homo sapiens, UniProt Q9Y5X5); assay: Voltage-clamp electrophysiology in Xenopus oocytes expressing NPFF2 (NPFF-like) and chimeric Gαq/z; details: 1 μM; oocytes with NPFF2 (NPFF-like) mRNA and Gαq/z; −80 mV
T3 construct: BO89, was determined to be a full length clone with no point mutations; expressed in transfected cells; host or cells: Xenopus laevis oocytes injected with synthetic mRNA
T3 sequence (Q9Y5X5 103-522): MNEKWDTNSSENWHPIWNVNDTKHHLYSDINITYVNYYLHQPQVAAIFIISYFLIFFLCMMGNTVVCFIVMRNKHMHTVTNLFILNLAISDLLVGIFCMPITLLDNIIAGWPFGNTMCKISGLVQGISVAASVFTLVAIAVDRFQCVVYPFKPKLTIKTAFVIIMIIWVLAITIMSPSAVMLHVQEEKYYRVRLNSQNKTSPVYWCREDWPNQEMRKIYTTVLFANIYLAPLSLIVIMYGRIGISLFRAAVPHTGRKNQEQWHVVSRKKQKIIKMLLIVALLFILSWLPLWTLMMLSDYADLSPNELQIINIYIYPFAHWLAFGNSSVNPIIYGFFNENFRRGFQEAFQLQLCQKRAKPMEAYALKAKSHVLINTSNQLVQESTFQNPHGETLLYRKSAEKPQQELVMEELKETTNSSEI
Description: Electrophysiological responses in voltage-clamped oocytes expressing NPFF2 mRNA. […] Oocytes were clamped at a holding potential of −80 mV.
For expression of NPFF2, mRNA transcripts were generated as described for NPFF1, using PCR products from ligation reactions or linearized DNA from B089 as DNA templates. Oocytes were injected with 5–50 ng NPFF2 mRNA and incubated as previously described.
as §1

H-AGEGLSSPFWSLAAPQRF-NH2 [A18Fa]
EC50 (NPFF1 (SN2)): 150 nM
inward current response (SNORF2 (NPFF1)): robust inward currents
inward current response (NPFF2 (hNPFF2)): activated similar inward currents
